Laboratory results from patent publication US11286278B2, “DPEP-1 binding agents and methods of use” (Arch Biopartners, Inc., priority 2018, dated 2022).
Ends that are not written are not given here.

Tests used:
[1] = molecular target: T1, renal rat membrane dipeptidase (DPEP-1) (Rattus norvegicus, UniProt P31430); assay: Binding of Alexa-488 conjugated peptides to Cos-7 cells transfected with renal rat membrane dipeptidase; conditions: Alexa-488 conjugate, on ice 30 minutes
T1 construct: expressed in transfected cells; host or cells: Cos-7
Method: Cells were incubated with LSALT or GFE-1 conjugated with Alexa-488 (Green), or control peptide conjugated with Alexa-488 (Green) on ice for 30 minutes. Cells were washed and fixed using 4% paraformaldehyde and immunofluorescence microscopy was performed to assess binding. Shown are representative photomicrographs of each experimental condition (n=2).
48 hours after transfection, cells were incubated with LSALT conjugated to Alexa-488 (green) on ice for 30 minutes. Cells were washed and flow cytometry was performed to assess binding. Shown are single parameter histographs for each experimental condition (n=2).

[2] = molecular target: T2, rat DPEP-1 (Rattus norvegicus, UniProt P31430); assay: Immunofluorescence binding of Alexa-488 conjugated peptides to Cos-1 cells transfected with rat DPEP-1; conditions: Alexa-488 conjugate, on ice 30 minutes
T2 construct: expressed in transfected cells; host or cells: Cos-1
Method: Cos-1 cells were transiently transfected with either 3 or 5 μg of membrane dipeptidase (DPEP-1) cDNA corresponding to the rat (Shown in FIG. 5A), human (Shown in FIG. 5B), or canine (Shown in FIG. 5E) DPEP-1 gene using Lipofectamine 2000 (Invitrogen) reagent in OptiMEM medium. 24 hours after transfection, DPEP-1 expresisng cells were re-seeded on collagen coated (neutralized) wells in 24 well plates and allowed to grow for 24 hours at 37° C. […] Cells were blocked with FBS/NBSA/Tween in PBS for 30 minutes on ice. Cells were then washed with PBS and incubated with Alexa-488 (green) conjugated LSALT, GFE-1, control peptide or DPEP-1 antibody ( 1/100) (Sigma) on ice for 30 minutes. […] After incubation, cells were washed with PBS and treated with 10 mg/ml biotin transfer peptide (LSALT, GFE-1 or Control Peptide (KGAL)] for 10 minutes. Cells were then washed with PBS and biotin transfer was enabled by UV activation of the aryl azide groups for 15 minutes at 363 nm. Residual fluid was removed and monolayers were lysed either with octyl-glucoside/RIPA or 8M urea. Isolated supernatants were rotated with 50 μl of neutr-avidin agarose beads at 4° C. for 24 hours. Beads were washed with corresponding buffers, boiled in Laemmli buffer and analyzed by western blot using a DPEP-1 specific antibody (Proteintech).

[3] = molecular target: T3, human DPEP3 (Homo sapiens, UniProt Q9H4B8); assay: Immunofluorescence binding to Cos-1 cells transfected with human DPEP3; conditions: Alexa-488 conjugate
T3 construct: expressed in transfected cells; host or cells: Cos-1
T3 sequence (Q9H4B8 36-463): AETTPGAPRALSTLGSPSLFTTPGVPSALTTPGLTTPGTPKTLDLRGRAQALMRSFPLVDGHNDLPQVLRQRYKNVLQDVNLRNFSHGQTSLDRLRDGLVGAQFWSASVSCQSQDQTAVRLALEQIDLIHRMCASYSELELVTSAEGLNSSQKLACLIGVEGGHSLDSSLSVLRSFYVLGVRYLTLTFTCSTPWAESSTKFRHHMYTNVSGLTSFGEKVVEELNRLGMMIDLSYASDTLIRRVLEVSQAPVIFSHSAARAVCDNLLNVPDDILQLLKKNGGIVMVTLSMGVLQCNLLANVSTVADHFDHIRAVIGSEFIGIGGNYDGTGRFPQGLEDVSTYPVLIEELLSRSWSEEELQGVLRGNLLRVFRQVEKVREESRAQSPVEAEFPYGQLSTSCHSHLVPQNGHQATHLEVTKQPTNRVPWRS
Method: Cos-1 cells were transiently transfected with either 3 μg of human DPEP-1, DPEP2, or DPEP3 gene using Lipofectamine 2000 (Invitrogen) reagent in OptiMEM medium. 24 hours after transfection, DPEP-1, DPEP2, or DPEP3 expressing cells were re-seeded on collagen coated (neutralized) wells in 24 well plates and allowed to grow for 24 hours at 37° C. […] Cells were blocked with FBS/NBSA/Tween in PBS for 30 minutes on ice. Cells were then washed with PBS and incubated with LSALT or GFE-1, conjugated with Alexa-488 (green). After incubation, cells were washed with PBS and stained with DAPI for 5 minutes on ice. Cells were then washed with PBS and fixed using 4% paraformaldehyde and immunofluorescence microscopy was performed to assess binding. Representative photomicrographs are shown for each experimental condition (n=3) in FIG. 6A. Proteins from DPEP-1, DPEP2 and DPEP3 transfected cells were isolated after 48 hours using octyl-glucoside/RIPA lysis buffer and western blot analysis was performed to assess DPEP-1, DPEP2 and DPEP3 protein expression using specific antibodies; DPEP-1 antibody (Sigma), DPEP2 (Abcam) and DPEP3 (Santacruz). Blots were stripped and reprobed with an anti-β-actin.

[4] = Incubation in whole human blood, LC/MS of metabolites; type: in vitro ADME; conditions: 50 μg/mL, whole human blood (citrate or K2 EDTA), up to 120 min
Method: Plasma was separated for each sample and phosphoric acid added to stabilize peptide at each timepoint. Samples were assessed for LSALT and its' metabolites using LC/MS. LSALT metabolites were identified using PEAKS X and database searches against LSALT and the human proteome. […] Transfected cells were positively selected for using geneticin resistance and subcloned to generate stably transfected DPEP1 clones. Stably transfected DPEP1 HEK cells were resuspended and incubated with biotinylated LSALT fragment peptides (50 μM) for 1 hour at 37° C. before PBS washes. Bound biotinylated peptide was detected via secondary streptavidin fluorescent conjugate (30 min. incubation at 37° C.) and washed with PBS. Peptide binding was analyzed via flow cytometer. Percentage of peptide binding was compared relative to negative control. […] LysM^(gfp) mice were subjected to endotoxemia via intravenous injection of lipopolysaccharide (LPS, O111:B4) at a dose of 5 mg/kg. The kidney was imaged using multiphoton microscopy at 4 hours post-injection. Various LSALT fragments was used intravenously to pretreat mice 10 min. before LPS injection. Inflammation was quantified by manual counting of monocyte adhesion in single microscopy fields (LPS vs. Fragment C; n=3-6 fields/group; ***:p=0.004).

T1 sequence (P31430 17-384): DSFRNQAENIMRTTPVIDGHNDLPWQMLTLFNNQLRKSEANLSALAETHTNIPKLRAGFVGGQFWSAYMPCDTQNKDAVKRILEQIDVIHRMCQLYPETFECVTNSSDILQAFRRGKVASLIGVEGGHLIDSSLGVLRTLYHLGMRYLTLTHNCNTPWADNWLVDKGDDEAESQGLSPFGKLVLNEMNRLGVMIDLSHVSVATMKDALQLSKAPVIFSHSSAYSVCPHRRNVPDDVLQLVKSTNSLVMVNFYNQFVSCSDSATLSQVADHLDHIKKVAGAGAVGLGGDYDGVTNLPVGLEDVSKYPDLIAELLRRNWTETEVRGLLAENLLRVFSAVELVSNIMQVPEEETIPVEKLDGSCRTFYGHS
T2 sequence (P31430 17-384): as above

## H-LSALTPSPSWLKYKAL [LSALT]
[1]
  binding to Cos-7 cells on DPEP-1 expression, flow cytometry: Enhanced the Binding
  binding to Cos-7 cells on DPEP-1 expression, immunofluorescence microscopy: Enhanced the Binding
[2]
  binding of fluorescently labelled peptide to rat DPEP-1 transfected Cos-1 cells: Binds
[3]
  binding to human DPEP3 transfected Cos-1 cells: does not Bind
[4]
  metabolism in whole blood: metabolized in whole blood into smaller fragments
